This is an account of results in patent US12180226B2, “Spirotricycle RIPK1 inhibitors and methods of uses thereof” (Merck Sharp & Dohme LLC, priority 2021, dated 2024).

Counter-ions that a name gives are not always drawn.

This assay has as its target RIPK1 (recombinant GST-RIPK1 kinase domain, residues 1-327) (Homo sapiens (Human), UniProt Q13546). Briefly: RIPK1-ADP-Glo Enzymatic Assay. As to conditions: ADP-Glo; 25 nM GST-RIPK1, 300 μM ATP; assay lower limit ~25 nM; read-out: RIPK1 V0 Ec50. In kind it is biochemical. The procedure, abridged:
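Compounds titrated 10-pt 1:3 from 100000 nM top (1% DMSO); 30 min preinc w/ 25 nM Sf21-expressed enzyme, RT; start w/ ATP (300 μM final) + dephos-MBP (3 μM); 150 min; ADP-Glo lumi; 4-param fit → EC50.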

Chain of RIPK1 (recombinant GST-RIPK1 kinase domain, residues 1-327) (Q13546 1-327): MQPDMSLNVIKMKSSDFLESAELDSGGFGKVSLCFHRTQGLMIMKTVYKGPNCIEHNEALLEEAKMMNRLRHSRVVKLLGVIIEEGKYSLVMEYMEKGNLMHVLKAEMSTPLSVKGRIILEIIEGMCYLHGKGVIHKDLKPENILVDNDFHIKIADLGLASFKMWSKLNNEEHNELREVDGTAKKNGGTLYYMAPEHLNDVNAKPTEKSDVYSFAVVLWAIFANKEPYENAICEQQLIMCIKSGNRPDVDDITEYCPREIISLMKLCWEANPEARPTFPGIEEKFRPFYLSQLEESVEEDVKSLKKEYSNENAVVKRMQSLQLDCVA

The EC50 is the concentration that produces a half-maximal response. For the molecule `O=C1N2[C@@H](CC[C@H]2c2cc(F)cc(F)c2)OC12CCN(c1cc(-c3cnn(C(F)F)c3)ncn1)CC2` [Example 10.1, (5′S,7a′R)-1-(6-(1-(difluoromethyl)-1H-pyrazol-4-yl)pyrimidin-4-yl)-5′-(3,5-difluorophenyl) tetrahydro-3′H-spiro[piperidine-4,2′-pyrrolo[2,1-b]oxazol]-3′-one], the EC50 is under 0.025 µM.

Take `O=C(c1cccc(C2CC2)c1)N1CCC2(CC1)O[C@@H]1CC[C@@H](c3ccccc3)N1C2=O` [Example 6.156, (5′S,7a′R)-1-(3-cyclopropylbenzene-1-carbonyl)-5′-phen-yltetrahydro-3′H-spiro[piperidine-4,2′-pyrrolo[2,1-b][1,3]oxazol]-3′-one]: the EC50 is under 0.025 µM.

As to `O=C(c1ccccc1)N1CCC2(CC1)O[C@@H]1CC[C@@H](c3ccc(F)cc3F)N1C2=O` [Example 17.14, (5′S,7a′R)-1-(benzenecarbonyl)-5′-(2,4-difluorophenyl)tetrahydro-3′H-spiro[piperidine-4,2′-pyrrolo[2,1-b][1,3]oxazol]-3′-one], the 50% effective concentration (EC50) was under 0.025 µM.

As for `O=C1N2[C@@H](CC[C@H]2c2ccccc2F)OC12CN(c1cc(Cl)ncn1)C2` [Example 4.107, (5′S,7a′R)-1-(6-chloropyrimidin-4-yl)-5′-(2-fluorophenyl)tetrahydro-3′H-spiro[azetidine-3,2′-pyrrolo[2,1-b]oxazol]-3′-one], the EC50 turned out to be 0.101 µM.

In the case of `N#Cc1cccc([C@@H]2CC[C@H]3OC4(CCN(c5ccnc6c(F)cnn56)CC4)C(=O)N32)c1F` [Example 20.5, 2-fluoro-3-[(5′S,7a′R)-1-(3-fluoropyrazolo[1,5-a]pyrimidin-7-yl)-3′-oxotetrahydro-3′H-spiro[piperidine-4,2′-pyrrolo[2,1-b][1,3]oxazol]-5′-yl]benzonitrile], the concentration for a half-maximal effect (EC50) was under 0.025 µM.

Regarding `COc1cccc([C@@H]2CC[C@H]3OC4(CCN(C(=O)c5ccccc5)CC4)C(=O)N32)n1` [Example 17.5, (5′S,7a′R)-1-benzoyl-5′-(6-methoxypyridin-2-yl)tetrahydro-3′H-spiro[piperidine-4,2′-pyrrolo[2,1-b]oxazol]-3′-one, TFA salt], the concentration giving a half-maximal response (EC50) came out at 0.344 µM.

With `O=C1N2[C@@H](CC[C@H]2c2ccccc2)OC12CCN(c1ccc(Cl)c3ccnn13)CC2` [Example 4.153, (5′S,7a′R)-1-(4-chloropyrazolo[1,5-a]pyridin-7-yl)-5′-phenyltetrahydro-3′H-spiro[piperidine-4,2′-pyrrolo[2,1-b] [1,3]oxazol]-3′-one], the EC50 is under 0.025 µM.

Regarding `Cc1ccccc1CN1CCC2(CC1)O[C@@H]1CC[C@@H](c3cc(F)cc(F)c3)N1C2=O` [Example 22.5, (5′S,7a′R)-5′-(3,5-difluorophenyl)-1-[(2-methylphenyl)methyl] tetrahydro-3′H-spiro[piperidine-4,2′-pyrrolo[2,1-b][1,3]oxazol]-3′-one], the EC50 was determined as 0.213 µM.

Consider `O=C1N2C(CCC2c2cccc(F)c2F)OC12CCN(c1ccnc3ccnn13)CC2` (centres unmarked) [Example 20.7, 5′-(2,3-difluorophenyl)-1-(pyrazolo[1,5-a]pyrimidin-7-yl)tetrahydro-3′H-spiro[piperidine-4,2′-pyrrolo[2,1-b][1,3]oxazol]-3′-one], for which the EC50 was under 0.025 µM.

For `O=C(c1nnc(-c2ccccn2)s1)N1CCC2(CC1)O[C@@H]1CC[C@@H](c3cc(F)cc(F)c3)N1C2=O` [Example 6.45, (5′S,7a′R)-5′-(3,5-difluorophenyl)-1-[5-(pyridin-2-yl)-1,3,4-thiadiazole-2-carbon-yl]tetrahydro-3′H-spiro[piperidine-4,2′-pyrrolo[2,1-b][1,3]oxazol]-3′-one], the 50% effective concentration (EC50) came to 0.451 µM.

With `CC1CN(c2ncnc3ccnn23)CCC12O[C@@H]1CC[C@@H](c3cc(F)cc(F)c3)N1C2=O` (stereo partly drawn) [Example 4.267, (5′S,7a′R)-5′-(3,5-difluorophenyl)-3-methyl-1-(pyrazolo[1,5-a] [1,3,5]triazin-4-yl)tetrahydro-3′H-spiro[piperidine-4,2′-pyrrolo[2,1-b] [1,3]oxazol]-3′-one], the concentration giving a half-maximal response (EC50) was under 0.025 µM.
